Laboratory results taken from patent publication US9708314B2, “Heterocyclic amide compound” (NISSAN CHEMICAL INDUSTRIES, LTD., priority 2013, dated 2017).

How the values were obtained:
Assay type in all cases: in vivo
Monochoria vaginalis [1] = experiment: Test Example 2: herbicidal activity, application during weed generation in submerged conditions; conditions: Eighteenth Table; application herbicide amount 320 g/ha
Summary of the method: (§1)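 Mixed sowings in flooded alluvial soil (4 cm water), greenhouse 25-30 °C; emulsifiable concentrate diluted in water applied to the water surface at the 1-2 leaf stage, rate in g/ha. Effect scored three weeks later on a 0-5 scale (5 = ≥90% herbicidal ratio, 0 = ≤5%).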

[2] = system: Echinochloa oryzacola Vasing.; experiment: as above; conditions: Eighteenth Table; application herbicide amount 320 g/ha
Summary of the method: as §1

Scirpus juncoides [3] = experiment: as above; conditions: Eighteenth Table; application herbicide amount 320 g/ha
Summary of the method: as §1

Cyperus difformis = experiment: Test Example 3: herbicidal effect by application to foliage (Wagner pot, water depth 0.1-0.5 cm); conditions: Nineteenth Table; application to foliage; application herbicide amount 320 g/ha
Summary of the method: (§2)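 Three weeks after spraying, each species was graded 0–5 for herbicidal ratio, 5 being 90% or more. Application: water-diluted emulsifiable concentrate at a fixed g/ha to foliage of 14-day-old greenhouse (25–30 °C) plants in alluvial soil.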

[4] = system: Echinochloa crus-galli var. crus-galli; experiment: as above; conditions: Nineteenth Table; application to foliage; application herbicide amount 320 g/ha
Summary of the method: as §2

Leptochloa chinensis = experiment: as above; conditions: Nineteenth Table; application to foliage; application herbicide amount 320 g/ha
Summary of the method: as §2

Monochoria vaginalis [5] = experiment: Test Example 1: herbicidal activity, application before weed generation in submerged conditions; conditions: Application herbicide amount 320 g/ha; Seventeenth Table
Summary of the method: (§3)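 Pre-emergence application to water surface of submerged pots (4 cm depth, alluvial soil) on sowing day, with 2.5-leaf rice transplanted; emulsion diluted to g/ha rates. Grown in greenhouse at 25–30 °C; 0–5 herbicidal/crop-effect score after three weeks.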

[6] = system: Echinochloa oryzacola Vasing.; experiment: as above; conditions: Application herbicide amount 320 g/ha; Seventeenth Table
Summary of the method: as §3

Scirpus juncoides [7] = experiment: as above; conditions: Application herbicide amount 320 g/ha; Seventeenth Table
Summary of the method: as §3

[8] = system: directly sowed Oryza sativa; experiment: Test Example 3: effect on crop by application to foliage (Wagner pot, water depth 0.1-0.5 cm); conditions: Nineteenth Table; application to foliage; application herbicide amount 320 g/ha
Summary of the method: as §2

Row | Compound | C (Monochoria vaginalis) herbicidal ratio grade (Monochoria vaginalis [1]) | A (Echinochloa oryzicola Vasing.) herbicidal ratio grade [2] | B (Scirpus juncoides) herbicidal ratio grade (Scirpus juncoides [3]) | E (herbicidal effect grade) (Cyperus difformis) | H (herbicidal effect grade) [4] | D (herbicidal effect grade) (Leptochloa chinensis) | C: Monochoria vaginalis (herbicidal effect grade) (Monochoria vaginalis [5]) | A: Echinochloa oryzicola Vasing. (herbicidal effect grade) [6] | B: Scirpus juncoides (herbicidal effect grade) (Scirpus juncoides [7]) | b (effect on crop grade) [8]
1 | Cn1nnnc1NC(=O)c1ccc(C(F)(F)F)n2c(C3=NOC(C)(C)C3)nnc12 [2-028] | 4 (Herbicidal ratio of 70% or more and less than 90%) | 5 (Herbicidal ratio of 90% or more (almost completely withered)) | 4 (Herbicidal ratio of 70% or more and less than 90%) | 5 (Herbicidal ratio of 90% or more (almost completely withered)) | 5 (Herbicidal ratio of 90% or more (almost completely withered)) | 5 (Herbicidal ratio of 90% or more (almost completely withered)) | 5 (Herbicidal ratio of 90% or more (almost completely withered)) | 5 (Herbicidal ratio of 90% or more (almost completely withered)) | 5 (Herbicidal ratio of 90% or more (almost completely withered)) | 5 (Herbicidal ratio of 90% or more (almost completely withered))
2 | CSCc1nnc2c(C(=O)Nc3nnnn3C)ccc(C(F)(F)F)n12 [2-029] | 4 (Herbicidal ratio of 70% or more and less than 90%) | 5 (Herbicidal ratio of 90% or more (almost completely withered)) | 4 (Herbicidal ratio of 70% or more and less than 90%) | 5 (Herbicidal ratio of 90% or more (almost completely withered)) | 5 (Herbicidal ratio of 90% or more (almost completely withered)) | 5 (Herbicidal ratio of 90% or more (almost completely withered)) | 5 (Herbicidal ratio of 90% or more (almost completely withered)) | 5 (Herbicidal ratio of 90% or more (almost completely withered)) | 5 (Herbicidal ratio of 90% or more (almost completely withered)) | 5 (Herbicidal ratio of 90% or more (almost completely withered))
3 | Cn1nnnc1NC(=O)c1ccc(C(F)(F)F)n2c(CSCC(F)(F)F)nnc12 [2-030] | 4 (Herbicidal ratio of 70% or more and less than 90%) | 4 (Herbicidal ratio of 70% or more and less than 90%) | 3 (Herbicidal ratio of 40% or more and less than 70%) | 4 (Herbicidal ratio of 70% or more and less than 90%) | 4 (Herbicidal ratio of 70% or more and less than 90%) | 5 (Herbicidal ratio of 90% or more (almost completely withered)) | 4 (Herbicidal ratio of 70% or more and less than 90%) | 5 (Herbicidal ratio of 90% or more (almost completely withered)) | 4 (Herbicidal ratio of 70% or more and less than 90%) | 5 (Herbicidal ratio of 90% or more (almost completely withered))
4 | CC[S+]([O-])c1nnc2c(C(=O)Nc3nnnn3C)ccc(C(F)(F)F)n12 (stereo not drawn) [2-031] | 4 (Herbicidal ratio of 70% or more and less than 90%) | 5 (Herbicidal ratio of 90% or more (almost completely withered)) | 4 (Herbicidal ratio of 70% or more and less than 90%) | 5 (Herbicidal ratio of 90% or more (almost completely withered)) | 5 (Herbicidal ratio of 90% or more (almost completely withered)) | 5 (Herbicidal ratio of 90% or more (almost completely withered)) | 5 (Herbicidal ratio of 90% or more (almost completely withered)) | 5 (Herbicidal ratio of 90% or more (almost completely withered)) | 5 (Herbicidal ratio of 90% or more (almost completely withered)) | 5 (Herbicidal ratio of 90% or more (almost completely withered))
5 | CC(C)[S+]([O-])c1nnc2c(C(=O)Nc3nnnn3C)ccc(C(F)(F)F)n12 (stereo not drawn) [2-032] | 5 (Herbicidal ratio of 90% or more (almost completely withered)) | 5 (Herbicidal ratio of 90% or more (almost completely withered)) | 5 (Herbicidal ratio of 90% or more (almost completely withered)) | 5 (Herbicidal ratio of 90% or more (almost completely withered)) | 5 (Herbicidal ratio of 90% or more (almost completely withered)) | 5 (Herbicidal ratio of 90% or more (almost completely withered)) | 5 (Herbicidal ratio of 90% or more (almost completely withered)) | 5 (Herbicidal ratio of 90% or more (almost completely withered)) | 5 (Herbicidal ratio of 90% or more (almost completely withered)) | 5 (Herbicidal ratio of 90% or more (almost completely withered))
6 | Cn1nnnc1NC(=O)c1ccc(C(F)(F)F)n2c(C[S+](C)[O-])nnc12 (stereo not drawn) [2-033] | 4 (Herbicidal ratio of 70% or more and less than 90%) | 4 (Herbicidal ratio of 70% or more and less than 90%) | 3 (Herbicidal ratio of 40% or more and less than 70%) | 5 (Herbicidal ratio of 90% or more (almost completely withered)) | 5 (Herbicidal ratio of 90% or more (almost completely withered)) | 5 (Herbicidal ratio of 90% or more (almost completely withered)) | 5 (Herbicidal ratio of 90% or more (almost completely withered)) | 5 (Herbicidal ratio of 90% or more (almost completely withered)) | 4 (Herbicidal ratio of 70% or more and less than 90%) | 5 (Herbicidal ratio of 90% or more (almost completely withered))
